Results as given in patent publication US4312867A, “Antibacterial compounds, processes for their preparation and compositions containing them” (Beecham Group Limited, priority 1979, dated 1982).

Key:
M bovis ATCC 25025 = experiment: in vitro anti-mycoplasmal MIC, Friis' agar (Table 3); type: cell-based
Method: (§1) The minimum inhibitory concentrations (MIC) of the examples were determined by either:
(§2) or (ii) by serial dilution in Friis' agar medium.

M bovis NCTC 10131 = experiment: as above; type: cell-based
Method: as §1, §2

[1] = Mean serum concentrations in neonatal piglets after intramuscular or oral administration; type: in vivo; conditions: pig, 50 mg/kg
Method: (f) Mean serum concentrations in neonatal piglets after intramuscular or oral administration at 50 mg/kg of 6-sulphamoylhexyl monate A
Blood levels were assessed in neonatal piglets (2 to 4 animals per group and mean bodyweights about 2 kg). The dose was 50 mg/kg (dose solution=25 mg/ml in 25% ethanol). Doses were given by intramuscular injection and orally by stomach tube. Piglets were bled at intervals up to 6 and at 24 hours, and serum assayed microbiologically (B. subtilis ATCC 6633).

C/C(=C\C(=O)OCCCCCCS(N)(=O)=O)CC1OCC(CC2OC2C(C)C(C)O)C(O)C1O (stereo not drawn) [Example 2, 6-Sulphamoylhexyl monate A]
MIC (M bovis ATCC 25025): < 0.02 µg/mL
MIC (M bovis NCTC 10131): < 0.02 µg/mL
concentration at 10 min ([1]; im): 31400 ng/mL
concentration at 20 min ([1]; im): 31200 ng/mL
concentration at 40 min ([1]; im): 23700 ng/mL
concentration at 1 h ([1]; im): 17300 ng/mL
concentration at 2 h ([1]; im): 9200 ng/mL
concentration at 3 h ([1]; im): 3200 ng/mL
concentration at 4 h ([1]; im): 1020 ng/mL
concentration at 5 h ([1]; im): < 600 ng/mL
concentration at 10 min ([1]; po): 5900 ng/mL
concentration at 20 min ([1]; po): 8300 ng/mL
concentration at 40 min ([1]; po): 8600 ng/mL
concentration at 1 h ([1]; po): 5900 ng/mL
concentration at 2 h ([1]; po): 1800 ng/mL
concentration at 3 h ([1]; po): 1500 ng/mL
concentration at 4 h ([1]; po): 740 ng/mL
concentration at 5 h ([1]; po): < 510 ng/mL
